Results published in ChEMBL document CHEMBL2040771, “Discovery of a potent inhibitor of anaplastic lymphoma kinase with in vivo antitumor activity” (ACS Med Chem Lett, 2010).
Activity calls are given as the source filed them. No cut-off for these calls is given here.

Legend:
[1] = target: Protein-tyrosine kinase 2-beta (Homo sapiens) (UniProt Q14289); assay: Inhibition of PYK2 at 1 uM
[2] = target: Ribosomal protein S6 kinase alpha-1 (Homo sapiens) (UniProt Q15418); assay: Inhibition of RPS6KA1 at 0.1 uM
[3] = Plasma clearance in Sprague-Dawley rat at 1 mg/kg, iv by LC/MS/MS analysis; assay type: ADME, organism-based; parameters: dose 1 mg/kg, route intravenous
[4] = target: Serine/threonine-protein kinase PLK4 (Homo sapiens) (UniProt O00444); assay: Inhibition of PLK4 at 1 uM
[5] = target: Mitogen-activated protein kinase kinase kinase 5 (Homo sapiens) (UniProt Q99683); assay: Inhibition of ASK1 at 0.1 uM
[6] = target: Non-receptor tyrosine-protein kinase TNK1 (Homo sapiens) (UniProt Q13470); assay: Inhibition of TNK1 at 0.1 uM
[7] = system: Receptor-type tyrosine-protein kinase FLT3 (Homo sapiens), P36888 [D835Y]; assay: Inhibition of FLT3 D835Y mutant at 1 uM
[8] = Tmax in SCID mouse at 10 mg/kg, po; assay type: ADME, organism-based; parameters: dose 10 mg/kg, route oral; settings: in vivo
[9] = AUC in beagle dog at 10 mg/kg, po; assay type: ADME, organism-based, Canis lupus familiaris; parameters: dose 10 mg/kg, route oral; settings: plasma
[10] = target: Dual specificity mitogen-activated protein kinase kinase 4 (Homo sapiens) (UniProt P45985); assay: Inhibition of MEK4 at 0.1 uM
[11] = target: Proto-oncogene tyrosine-protein kinase ROS (Homo sapiens) (UniProt P08922); assay: Inhibition of ROS at 1 uM
[12] = target: Focal adhesion kinase 1 (Homo sapiens) (UniProt Q05397); assay: Inhibition of FAK at 0.1 uM
[13] = target: Serine/threonine-protein kinase 3 (Homo sapiens) (UniProt Q13188); assay: Inhibition of MST2 at 1 uM
[14] = target: Epidermal growth factor receptor (Homo sapiens) (UniProt P00533); assay: Inhibition of EGFR at 0.1 uM
[15] = target: Ribosomal protein S6 kinase alpha-1 (Homo sapiens) (UniProt Q15418); assay: Inhibition of RPS6KA1 at 1 uM
[16] = target: NUAK family SNF1-like kinase 1 (Homo sapiens) (UniProt O60285); assay: Inhibition of ARK5 at 1 uM
[17] = target: T1, ALK tyrosine kinase receptor (Homo sapiens, UniProt Q9UM73); settings: 0.1 uM
Description: Inhibition of ALK at 0.1 uM

[18] = Half life in beagle dog at 1 mg/kg, iv; assay type: ADME, organism-based, Canis lupus familiaris; parameters: dose 1 mg/kg, route intravenous; settings: in vivo
KARPAS-299 [19] = assay: Induction apoptosis in ALK-positive human KARPAS299 cells assessed as activation of caspase 3/7 by fluorometric assay; assay type: functional, cell-based
[20] = Tmax in beagle dog at 10 mg/kg, po; assay type: ADME, organism-based, Canis lupus familiaris; parameters: dose 10 mg/kg, route oral; settings: in vivo
Insulin receptor = Insulin receptor (Homo sapiens, UniProt P06213); assay: Inhibition of insulin receptor
[21] = target: T1, ALK tyrosine kinase receptor; assay: Inhibition of NPM-ALK autophosphorylation in human KARPAS299 cells in presence of mouse plasma; assay type: cell-based; settings: karpas-299
[22] = Growth inhibition of ALK-positive human SUP-M2 cells by MTS assay; assay type: functional, cell-based
[23] = target: Vascular endothelial growth factor receptor 3 (Homo sapiens) (UniProt P35916); assay: Inhibition of FLT4 at 1 uM
[24] = target: Serine/threonine-protein kinase 32B (Homo sapiens) (UniProt Q9NY57); assay: Inhibition of YANK2 at 0.1 uM
[25] = Half life in Sprague-Dawley rat at 1 mg/kg, iv; assay type: ADME, organism-based; parameters: dose 1 mg/kg, route intravenous; settings: in vivo
[26] = Ratio of drug level in tumor to plasma in SCID mouse; assay type: ADME; settings: tumor and plasma
[27] = Half life in beagle dog at 10 mg/kg, po; assay type: ADME, organism-based, Canis lupus familiaris; parameters: dose 10 mg/kg, route oral; settings: in vivo
[28] = target: Platelet-derived growth factor receptor beta (Homo sapiens) (UniProt P09619); assay: Inhibition of PDGFRB at 1 uM
[29] = Inhibition of FLT3 ITD mutant at 0.1 uM
[30] = Half life in SCID mouse at 10 mg/kg, po; assay type: ADME, organism-based; parameters: dose 10 mg/kg, route oral; settings: in vivo
[31] = target: Cyclin-G-associated kinase (Homo sapiens) (UniProt O14976); assay: Inhibition of GAK at 0.1 uM
SUP-M2 = assay: Induction apoptosis in ALK-positive human SUP-M2 cells assessed as activation of caspase 3/7 by fluorometric assay; assay type: functional, cell-based
Mus musculus [32] = assay: Toxicity in SCID mouse xenografted with human SUP-M2 cells assessed as weight loss at 55 mg/kg, po BID for 12 days; assay type: organism-based; parameters: dose 55 mg/kg, route oral; settings: in vivo, 288 h
[33] = target: Serine/threonine-protein kinase 33 (Homo sapiens) (UniProt Q9BYT3); assay: Inhibition of STK33 at 0.1 uM
[34] = Drug uptake in tumor lysates in SCID mouse xenografted with ALK-positive human SUP-M2 cells at 55 mg/kg, po bid for 12 days; assay type: ADME, organism-based, Neoplasm; parameters: dose 55 mg/kg, route oral; settings: read-out: Drug uptake
[35] = AUC in Sprague-Dawley rat at 1 mg/kg, iv; assay type: ADME, organism-based; parameters: dose 1 mg/kg, route intravenous; settings: plasma
Mus musculus [36] = assay: Toxicity in SCID mouse xenografted with human SUP-M2 cells assessed as weight loss at 30 mg/kg, po BID for 12 days; assay type: organism-based; parameters: dose 30 mg/kg, route oral; settings: in vivo, 288 h
Mus musculus [37] = assay: Toxicity in SCID mouse xenografted with human SUP-M2 cells at 10 mg/kg, po BID for 12 days; assay type: organism-based; parameters: dose 10 mg/kg, route oral; settings: in vivo, 288 h
Canis familiaris = assay: Clearance with respect to hepatic blood flow in beagle dog at 1 mg/kg, iv; assay type: ADME, organism-based, Canis lupus familiaris, Liver; parameters: dose 1 mg/kg, route intravenous; settings: in vivo
[38] = Volume of distribution in Sprague-Dawley rat at 1 mg/kg, iv; assay type: ADME, organism-based; parameters: dose 1 mg/kg, route intravenous; settings: in vivo
[39] = target: Dual specificity protein kinase TTK (Homo sapiens) (UniProt P33981); assay: Inhibition of TTK at 1 uM
[40] = target: T1, ALK tyrosine kinase receptor; assay: Inhibition of NPM-ALK autophosphorylation in human KARPAS299 cells; assay type: cell-based; settings: karpas-299
[41] = target: Serine/threonine-protein kinase PAK 3 (Homo sapiens) (UniProt O75914); assay: Inhibition of PAK3 at 1 uM
Mus musculus [42] = assay: Toxicity in SCID mouse xenografted with human SUP-M2 cells at 30 mg/kg, po BID for 12 days; assay type: organism-based; parameters: dose 30 mg/kg, route oral; settings: in vivo, 288 h
[43] = target: Protein-tyrosine kinase 2-beta (Homo sapiens) (UniProt Q14289); assay: Inhibition of PYK2 at 0.1 uM
[44] = target: Proto-oncogene tyrosine-protein kinase ROS (Homo sapiens) (UniProt P08922); assay: Inhibition of ROS at 0.1 uM
[45] = system: Epidermal growth factor receptor (Homo sapiens), P00533 [L861Q]; assay: Inhibition of EGFR L861Q mutant at 1 uM; assay type: protein assay
[46] = Volume of distribution in SCID mouse at 1 mg/kg, iv; assay type: ADME, organism-based; parameters: dose 1 mg/kg, route intravenous; settings: in vivo
KARPAS-299 [47] = assay: Growth inhibition of ALK-positive human KARPAS299 cells by MTS assay; assay type: functional, cell-based
[48] = Half life in SCID mouse at 1 mg/kg, iv; assay type: ADME, organism-based; parameters: dose 1 mg/kg, route intravenous; settings: in vivo
[49] = AUC in SCID mouse at 1 mg/kg, iv; assay type: ADME, organism-based; parameters: dose 1 mg/kg, route intravenous; settings: plasma
Mus musculus [50] = assay: Antitumor activity in ALK-positive human SUP-M2 cells xenografted in SCID mouse assessed as inhibition of NPM-ALK autophosphorylation in tumor lysate at 30 mg/kg, po administered as single dose measured after 12 hrs; assay type: functional; settings: SUP-M2, Neoplasm, read-out: TGI
[51] = Oral bioavailability in beagle dog at 10 mg/kg; assay type: ADME, organism-based, Canis lupus familiaris; settings: in vivo

T1 sequence (Q9UM73 19-1620 limits assumed): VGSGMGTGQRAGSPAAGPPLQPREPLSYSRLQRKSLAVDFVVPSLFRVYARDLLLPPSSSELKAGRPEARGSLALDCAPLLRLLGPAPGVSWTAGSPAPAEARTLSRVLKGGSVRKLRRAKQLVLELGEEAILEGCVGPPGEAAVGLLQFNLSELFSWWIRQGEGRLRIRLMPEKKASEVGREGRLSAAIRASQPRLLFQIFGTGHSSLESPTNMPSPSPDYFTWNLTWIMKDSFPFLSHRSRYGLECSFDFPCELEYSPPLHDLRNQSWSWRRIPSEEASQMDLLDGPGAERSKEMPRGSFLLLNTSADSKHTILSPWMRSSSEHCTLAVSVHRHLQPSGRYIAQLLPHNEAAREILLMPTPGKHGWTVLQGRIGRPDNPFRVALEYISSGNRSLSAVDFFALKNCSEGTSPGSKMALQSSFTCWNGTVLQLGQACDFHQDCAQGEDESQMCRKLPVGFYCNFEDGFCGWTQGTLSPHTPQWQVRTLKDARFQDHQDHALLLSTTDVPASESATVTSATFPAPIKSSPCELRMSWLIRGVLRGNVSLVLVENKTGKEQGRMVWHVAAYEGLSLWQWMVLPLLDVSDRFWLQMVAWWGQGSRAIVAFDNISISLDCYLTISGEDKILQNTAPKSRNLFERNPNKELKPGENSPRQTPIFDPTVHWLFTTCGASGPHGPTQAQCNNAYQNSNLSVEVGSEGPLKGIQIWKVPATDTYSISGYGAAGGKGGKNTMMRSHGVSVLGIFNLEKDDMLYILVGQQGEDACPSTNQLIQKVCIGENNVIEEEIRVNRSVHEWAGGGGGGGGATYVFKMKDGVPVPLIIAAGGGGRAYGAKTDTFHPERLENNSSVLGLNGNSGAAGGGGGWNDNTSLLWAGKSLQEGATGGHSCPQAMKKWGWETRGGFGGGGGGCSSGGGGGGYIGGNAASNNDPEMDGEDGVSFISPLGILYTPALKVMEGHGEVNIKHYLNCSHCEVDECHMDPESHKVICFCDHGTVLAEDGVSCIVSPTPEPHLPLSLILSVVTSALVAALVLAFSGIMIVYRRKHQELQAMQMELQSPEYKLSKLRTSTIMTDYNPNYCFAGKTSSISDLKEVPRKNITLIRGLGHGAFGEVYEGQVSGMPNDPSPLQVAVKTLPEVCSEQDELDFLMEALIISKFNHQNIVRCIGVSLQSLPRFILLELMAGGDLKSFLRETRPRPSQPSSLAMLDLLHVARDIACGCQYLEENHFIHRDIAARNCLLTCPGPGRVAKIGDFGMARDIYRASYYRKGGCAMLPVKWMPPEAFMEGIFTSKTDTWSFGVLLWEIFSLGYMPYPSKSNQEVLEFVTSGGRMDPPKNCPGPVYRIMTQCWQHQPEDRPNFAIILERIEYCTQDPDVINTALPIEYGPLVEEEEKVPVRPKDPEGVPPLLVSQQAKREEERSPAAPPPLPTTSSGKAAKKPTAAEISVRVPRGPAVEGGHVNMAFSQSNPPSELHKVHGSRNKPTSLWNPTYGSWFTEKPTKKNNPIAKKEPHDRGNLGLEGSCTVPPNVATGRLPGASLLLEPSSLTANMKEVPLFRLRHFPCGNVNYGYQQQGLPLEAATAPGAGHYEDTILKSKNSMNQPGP
Proto-oncogene tyrosine-protein kinase ROS (Homo sapiens), sequence (P08922 whole entry): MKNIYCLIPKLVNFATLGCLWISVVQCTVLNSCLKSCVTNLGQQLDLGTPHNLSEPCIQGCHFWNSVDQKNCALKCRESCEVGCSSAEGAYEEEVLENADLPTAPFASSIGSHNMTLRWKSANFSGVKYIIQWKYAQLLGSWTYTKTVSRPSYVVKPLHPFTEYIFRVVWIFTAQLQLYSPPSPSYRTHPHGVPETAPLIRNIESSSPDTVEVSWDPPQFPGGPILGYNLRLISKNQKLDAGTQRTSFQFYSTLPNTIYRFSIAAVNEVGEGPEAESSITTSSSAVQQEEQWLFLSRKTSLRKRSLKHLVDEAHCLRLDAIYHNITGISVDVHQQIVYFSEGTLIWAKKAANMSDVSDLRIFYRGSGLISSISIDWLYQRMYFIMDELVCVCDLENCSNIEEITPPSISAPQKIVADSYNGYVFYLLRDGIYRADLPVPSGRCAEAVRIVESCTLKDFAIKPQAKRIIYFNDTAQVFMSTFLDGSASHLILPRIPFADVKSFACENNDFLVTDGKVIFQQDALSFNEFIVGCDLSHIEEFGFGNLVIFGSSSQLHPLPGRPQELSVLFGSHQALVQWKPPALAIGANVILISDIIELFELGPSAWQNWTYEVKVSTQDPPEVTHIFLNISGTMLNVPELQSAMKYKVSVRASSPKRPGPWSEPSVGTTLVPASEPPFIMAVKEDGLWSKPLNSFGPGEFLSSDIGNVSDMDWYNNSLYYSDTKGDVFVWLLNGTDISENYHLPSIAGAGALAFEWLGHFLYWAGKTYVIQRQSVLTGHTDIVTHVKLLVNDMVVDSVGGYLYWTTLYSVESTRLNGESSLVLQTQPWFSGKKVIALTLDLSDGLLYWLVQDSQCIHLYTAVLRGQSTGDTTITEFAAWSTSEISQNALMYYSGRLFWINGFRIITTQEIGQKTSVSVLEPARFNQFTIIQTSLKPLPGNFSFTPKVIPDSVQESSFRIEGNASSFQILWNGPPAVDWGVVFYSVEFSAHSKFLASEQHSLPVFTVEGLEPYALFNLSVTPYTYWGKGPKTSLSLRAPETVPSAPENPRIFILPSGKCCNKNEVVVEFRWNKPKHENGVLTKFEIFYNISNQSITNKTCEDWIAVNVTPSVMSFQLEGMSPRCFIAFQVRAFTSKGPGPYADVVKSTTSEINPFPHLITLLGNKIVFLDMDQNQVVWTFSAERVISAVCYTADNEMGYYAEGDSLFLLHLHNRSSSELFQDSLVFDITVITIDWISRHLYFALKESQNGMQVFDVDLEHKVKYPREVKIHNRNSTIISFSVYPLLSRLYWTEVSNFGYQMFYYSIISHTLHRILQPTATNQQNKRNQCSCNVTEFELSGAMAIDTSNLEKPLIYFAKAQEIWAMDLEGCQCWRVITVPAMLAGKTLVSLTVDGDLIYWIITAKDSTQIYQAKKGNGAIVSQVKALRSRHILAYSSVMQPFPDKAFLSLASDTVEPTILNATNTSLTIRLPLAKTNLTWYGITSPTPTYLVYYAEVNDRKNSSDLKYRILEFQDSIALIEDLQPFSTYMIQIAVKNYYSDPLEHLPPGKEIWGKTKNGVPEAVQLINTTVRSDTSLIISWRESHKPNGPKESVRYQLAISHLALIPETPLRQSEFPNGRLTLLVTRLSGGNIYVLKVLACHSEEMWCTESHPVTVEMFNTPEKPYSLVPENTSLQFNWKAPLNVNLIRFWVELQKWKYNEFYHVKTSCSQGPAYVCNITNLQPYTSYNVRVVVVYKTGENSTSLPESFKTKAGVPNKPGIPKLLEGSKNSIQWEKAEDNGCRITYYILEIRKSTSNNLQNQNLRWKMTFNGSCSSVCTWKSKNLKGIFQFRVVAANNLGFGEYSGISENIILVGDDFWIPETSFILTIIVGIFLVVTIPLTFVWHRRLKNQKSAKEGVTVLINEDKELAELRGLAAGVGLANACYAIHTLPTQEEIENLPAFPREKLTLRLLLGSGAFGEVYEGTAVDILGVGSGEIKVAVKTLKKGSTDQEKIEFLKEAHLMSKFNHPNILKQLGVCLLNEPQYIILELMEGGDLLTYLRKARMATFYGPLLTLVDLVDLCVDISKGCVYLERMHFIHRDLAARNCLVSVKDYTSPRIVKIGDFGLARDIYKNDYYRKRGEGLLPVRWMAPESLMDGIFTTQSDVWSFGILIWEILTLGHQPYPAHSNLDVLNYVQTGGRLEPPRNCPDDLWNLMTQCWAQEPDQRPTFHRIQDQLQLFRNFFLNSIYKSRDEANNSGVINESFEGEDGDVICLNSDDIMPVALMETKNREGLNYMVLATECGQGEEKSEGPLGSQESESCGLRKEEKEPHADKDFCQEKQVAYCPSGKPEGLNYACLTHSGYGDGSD
Protein-tyrosine kinase 2-beta (Homo sapiens), sequence (Q14289 whole entry, looked up): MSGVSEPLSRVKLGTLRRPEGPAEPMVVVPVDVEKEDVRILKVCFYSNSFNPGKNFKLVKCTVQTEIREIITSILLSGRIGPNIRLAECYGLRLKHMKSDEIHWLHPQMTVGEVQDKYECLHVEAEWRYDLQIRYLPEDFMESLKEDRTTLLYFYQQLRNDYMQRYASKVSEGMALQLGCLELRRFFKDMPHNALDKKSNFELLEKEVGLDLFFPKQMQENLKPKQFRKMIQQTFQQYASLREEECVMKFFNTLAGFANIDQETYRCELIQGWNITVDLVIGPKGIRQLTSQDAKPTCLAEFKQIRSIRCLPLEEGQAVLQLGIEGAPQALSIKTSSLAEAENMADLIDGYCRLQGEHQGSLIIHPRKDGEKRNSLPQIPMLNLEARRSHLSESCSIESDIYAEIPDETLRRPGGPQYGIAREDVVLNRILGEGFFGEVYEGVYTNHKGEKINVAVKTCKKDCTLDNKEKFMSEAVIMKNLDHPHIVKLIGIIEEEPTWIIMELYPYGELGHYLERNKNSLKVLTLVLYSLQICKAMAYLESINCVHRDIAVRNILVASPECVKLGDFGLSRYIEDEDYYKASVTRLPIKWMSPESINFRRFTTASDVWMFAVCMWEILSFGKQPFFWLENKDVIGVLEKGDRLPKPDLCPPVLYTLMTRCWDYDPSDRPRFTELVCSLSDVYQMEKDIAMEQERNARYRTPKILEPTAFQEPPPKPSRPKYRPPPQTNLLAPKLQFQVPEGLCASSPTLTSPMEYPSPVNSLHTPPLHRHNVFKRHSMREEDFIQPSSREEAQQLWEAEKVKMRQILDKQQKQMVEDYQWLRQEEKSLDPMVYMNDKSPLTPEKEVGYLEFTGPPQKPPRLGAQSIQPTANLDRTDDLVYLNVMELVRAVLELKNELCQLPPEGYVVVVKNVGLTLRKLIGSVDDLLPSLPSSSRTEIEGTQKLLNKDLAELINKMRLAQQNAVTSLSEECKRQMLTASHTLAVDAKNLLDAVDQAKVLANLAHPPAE

## CCN1C(=O)CCCc2c1ccc(Nc1ncc(Cl)c(N[C@H]3[C@@H](C(N)=O)[C@@H]4C=C[C@H]3C4)n1)c2OC
[1]
  inhibition: 99%
[2]
  inhibition: 68%
[3]
  clearance: 13 mL/min/kg
[4]
  inhibition: 95%
[5]
  inhibition: 72%
[6]
  inhibition: 93%
[7]
  inhibition: 96%
[8]
  Tmax: 0.25 h
[9]
  AUC: 2480 ng·h/mL
[10]
  inhibition: < 50%
[11]
  inhibition: 93%
[12]
  inhibition: 72%
[13]
  inhibition: 91%
[14]
  inhibition: < 50%
[15]
  inhibition: 100%
[16]
  inhibition: 92%
[17]
  inhibition: 89%
[18]
  half-life: 1.1 h
KARPAS-299 [19]
  Activity: Active
[20]
  Tmax: 1.1 h
Insulin receptor
  IC50: 597 nM
[21]
  IC50: 225 nM
[22]
  EC50: 200 nM
[23]
  inhibition: 100%
[24]
  inhibition: < 50%
[25]
  half-life: 0.8 h
[26]
  Kp: 1.3
[27]
  half-life: 1.6 h
[28]
  inhibition: 98%
[29]
  inhibition: < 50%
[30]
  half-life: 2.4 h
[31]
  inhibition: < 50%
SUP-M2
  Activity: Active
Mus musculus [32]
  Activity: Non-toxic
[33]
  inhibition: 84%
[34]
  concentration at 288 h: 1180 ng/g
[35]
  AUC: 1280 ng·h/mL
Mus musculus [36]
  Activity: Non-toxic
Mus musculus [37]
  Activity: Non-toxic
Canis familiaris
  CL: 58%
[38]
  Vd: 0.9 L/kg
[39]
  inhibition: 96%
[40]
  IC50: 45 nM
[41]
  inhibition: 90%
Mus musculus [42]
  Activity: Non-toxic
[43]
  inhibition: 90%
[44]
  inhibition: 77%
[45]
  inhibition: 93%
[46]
  Vd: 0.9 L/kg
KARPAS-299 [47]
  EC50: 200 nM
[48]
  half-life: 0.3 h
[49]
  AUC: 446 ng·h/mL
Mus musculus [50]
  inhibition in vivo at 30 mg/kg: > 80%
[51]
  bioavailability: 31%
